Laboratory results: patent publication US20180140545A1, “ANTIMICROBIAL PEPTIDE STIMULATING SANITIZING COMPOSITION” (GOJO Industries, Inc., priority 2016, published 2018)

Tests used:
Type in all cases: cell-based
HBD-1 = HBD-1 ELISA, dose response in Neonatal Human Epidermal Keratinocytes; details: for HBD-1: NHEK, overnight (16 hours); for increase in HBD-1 production and/or activity: vs control culture medium
Protocol: (§1) To determine the optimal dose of active ingredient, test dose response studies were run using both Decorinyl® and Pamitoyl Pentapeptided-3. These test dose response studies were commissioned to determine the concentration of HBD-1 at various levels of the active ingredients. Neonatal Human Epidermal Keratinocytes (NHEK; Life Technology, Grand Island, N.Y., USA) were cultured with keratinocyte growth medium (KGM, Medium 154: M-154-500 Life Technology with supplements S-001, Life Technologies). NHEK were seeded into 96-well plates at a density of 10000 cells in 200 μl medium per well. After 48 hours, the cells were incubated with varying concentrations of each ingredient solution in a culture medium (KGM) overnight (16 hours) at 37° C., 5% CO2 and 95% humidity at four replicates for each concentration. Each of these active ingredients was tested at the following weight percents based on the weight of the total culture: 0.02 wt. %, 0.05 wt. %, 0.1 wt. %, 0.2 wt. %, 0.5 wt. %, 1.0 wt. %, 2.0 wt. %. Each of these compositions was compared to a control culture medium.
(§2) HBD-1 was detected using HBD-1 ELISA (enzyme-linked immunosorbent assay) developing kits (commercially available from Peprotech). ELISA were performed according to the manufactory instructions of each kit by adding 100 μl/well of culture medium after overnight treatment. The substrate of ELISA reaction was using the substrate reagent from R&D Systems (DY999), and the reactions were stopped by adding 50 μl of 1N H2SO4 in each well. The results were measured using a colorimeter, absorbance was measured at 450 nanometers (nm) within 30 minutes. Wavelength correction was set to 570 nm. The concentration of each sample was calculated using ELISA standard curve.

HBD-2 = HBD-2 ELISA, dose response in Neonatal Human Epidermal Keratinocytes; details: for HBD-2: NHEK, overnight (16 hours)
Protocol: as §1, with “of HBD-2” for “of HBD-1”, “ingredients were” for “ingredients was”
as §2, with “HBD-2” for “HBD-1”, “ELISA” for “ELISA (enzyme-linked immunosorbent assay)”

HBD-3 = HBD-3 ELISA, dose response in Neonatal Human Epidermal Keratinocytes; details: for HBD-3: NHEK, overnight (16 hours); for increase in HBD-3 production and/or activity: vs control culture medium
Protocol: as §1, with “HBD-3” for “HBD-1”
as §2, with “HBD-3” for “HBD-1”, “ELISA” for “ELISA (enzyme-linked immunosorbent assay)”

Substance: palmitoyl pentapeptide-3 [Pamitoyl Pentapeptided-3]
- HBD-1 (HBD-1; 0.02% active ingredient): 59 pg/mL
- HBD-1 (HBD-1; 0.05% active ingredient): 57 pg/mL
- HBD-1 (HBD-1; 0.1% active ingredient): 64 pg/mL
- HBD-1 (HBD-1; 0.2% active ingredient): 85 pg/mL
- HBD-1 (HBD-1; 0.5% active ingredient): 162 pg/mL
- HBD-1 (HBD-1; 1% active ingredient): 259 pg/mL
- increase in HBD-1 production and/or activity (HBD-1; 1.0 wt. %): 311%
- HBD-1 (HBD-1; 2% active ingredient): 1047 pg/mL
- increase in HBD-1 production and/or activity (HBD-1; 2.0 wt. %): 1561%
- HBD-2 (HBD-2; 0.02% active ingredient): 9 pg/mL
- HBD-2 (HBD-2; 0.05% active ingredient): 8 pg/mL
- HBD-2 (HBD-2; 0.1% active ingredient): 9 pg/mL
- HBD-2 (HBD-2; 0.2% active ingredient): 14 pg/mL
- HBD-2 (HBD-2; 0.5% active ingredient): 21 pg/mL
- HBD-2 (HBD-2; 1% active ingredient): 72 pg/mL
- HBD-2 (HBD-2; 2% active ingredient): 203 pg/mL
- increase in HBD-2 production and/or activity (HBD-2; 2.0 wt. %, vs control culture medium): 2800%
- HBD-3 (HBD-3; 0.02% active ingredient): 288 pg/mL
- HBD-3 (HBD-3; 0.05% active ingredient): 242 pg/mL
- HBD-3 (HBD-3; 0.1% active ingredient): 387 pg/mL
- HBD-3 (HBD-3; 0.2% active ingredient): 775 pg/mL
- HBD-3 (HBD-3; 0.5% active ingredient): 2278 pg/mL
- HBD-3 (HBD-3; 1% active ingredient): 4783 pg/mL
- increase in HBD-3 production and/or activity (HBD-3; 1.0 wt. %): 1005%
- HBD-3 (HBD-3; 2% active ingredient): 8617 pg/mL
- increase in HBD-3 production and/or activity (HBD-3; 2.0 wt. %): 1890%
